Measurements taken from ChEMBL document CHEMBL3045600, “Synthesis and Fungicidal Activities of Phenoxyphenyl Alkoxyiminoacetamide Derivatives” (J Pestic Sci, 1998).

Legend:
Type in all cases: functional
Podosphaera fuliginea [1] = assay: Fungicidal activity against Podosphaera fuliginea assessed as cucumber powdery mildew control under greenhouse at 7.8 ppm foliar application 24 hr before inoculation on upper surface of leaf at 23 +/- 2 degC by preventive manner
[2] = test system: Pseudoperonospora cubensis; assay: Fungicidal activity against Pseudoperonospora cubensis assessed as cucumber downy mildew disease control at 31.3 ppm foliar application 24 hr before inoculation on upper surface of leaf by preventive manner
Podosphaera fuliginea [3] = assay: Fungicidal activity against Podosphaera fuliginea assessed as cucumber powdery mildew control under greenhouse at 2 ppm foliar application 24 hr before inoculation on upper surface of leaf at 23 +/- 2 degC by preventive manner
Podosphaera fuliginea [4] = assay: Fungicidal activity against Podosphaera fuliginea assessed as cucumber powdery mildew control under greenhouse at 2 ppm foliar application 24 hr after inoculation on upper surface of leaf at 23 +/- 2 degC by curative manner
[5] = test system: Pseudoperonospora cubensis; assay: Fungicidal activity against Pseudoperonospora cubensis assessed as cucumber downy mildew disease control at 31.3 ppm foliar application 24 hr after inoculation on upper surface of leaf by curative manner
[6] = test system: Pseudoperonospora cubensis; assay: Fungicidal activity against Pseudoperonospora cubensis assessed as cucumber downy mildew disease control at 2 ppm foliar application 24 hr before inoculation on upper surface of leaf by preventive manner
[7] = test system: Pseudoperonospora cubensis; assay: Fungicidal activity against Pseudoperonospora cubensis assessed as cucumber downy mildew disease control at 7.8 ppm foliar application 24 hr before inoculation on upper surface of leaf by preventive manner
Pyricularia oryzae [8] = assay: Fungicidal activity against Magnaporthe oryzae assessed as rice blast disease control at 0.16 ppm submerged application measured after 7 days
Botrytis cinerea [9] = assay: Fungicidal activity against Botryotinia fuckeliana assessed as cucumber gray mold disease control at 125 ppm foliar application 24 hr after inoculation at 22 +/- 2 degC measured after 3 days by curative manner
Pyricularia oryzae [10] = assay: Fungicidal activity against Magnaporthe oryzae assessed as rice blast disease control at 0.63 ppm submerged application measured after 7 days
Podosphaera fuliginea [11] = assay: Fungicidal activity against Podosphaera fuliginea assessed as cucumber powdery mildew control under greenhouse at 31.3 ppm foliar application 24 hr before inoculation on upper surface of leaf at 23 +/- 2 degC by preventive manner
Podosphaera fuliginea [12] = assay: Fungicidal activity against Podosphaera fuliginea assessed as cucumber powdery mildew control under greenhouse at 7.8 ppm foliar application 24 hr after inoculation on upper surface of leaf at 23 +/- 2 degC by curative manner
Pyricularia oryzae [13] = assay: Fungicidal activity against Magnaporthe oryzae assessed as rice blast disease control at 2.5 ppm submerged application measured after 7 days
[14] = test system: Pseudoperonospora cubensis; assay: Fungicidal activity against Pseudoperonospora cubensis assessed as cucumber downy mildew disease control at 125 ppm foliar application 24 hr after inoculation on upper surface of leaf by curative manner
[15] = test system: Pseudoperonospora cubensis; assay: Fungicidal activity against Pseudoperonospora cubensis assessed as cucumber downy mildew disease control at 2 ppm foliar application 24 hr after inoculation on upper surface of leaf by curative manner
[16] = test system: Pseudoperonospora cubensis; assay: Fungicidal activity against Pseudoperonospora cubensis assessed as cucumber downy mildew disease control at 7.8 ppm foliar application 24 hr after inoculation on upper surface of leaf by curative manner
Pyricularia oryzae [17] = assay: Fungicidal activity against Magnaporthe oryzae assessed as rice blast disease control at 10 ppm submerged application measured after 7 days
Podosphaera fuliginea [18] = assay: Fungicidal activity against Podosphaera fuliginea assessed as cucumber powdery mildew control under greenhouse at 31.3 ppm foliar application 24 hr after inoculation on upper surface of leaf at 23 +/- 2 degC by curative manner
Podosphaera fuliginea [19] = assay: Fungicidal activity against Podosphaera fuliginea assessed as cucumber powdery mildew control under greenhouse at 125 ppm foliar application 24 hr after inoculation on upper surface of leaf at 23 +/- 2 degC by curative manner
Thanatephorus cucumeris [20] = assay: Fungicidal activity against Thanatephorus cucumeris assessed as rice sheath blight disease control at 125 ppm foliar application for 24 hr before inoculation at 26 +- 2 measured after 5 days by preventive manner
Thanatephorus cucumeris [21] = assay: Fungicidal activity against Thanatephorus cucumeris assessed as rice sheath blight disease control at 2 ppm foliar application for 24 hr before inoculation at 26 +- 2 measured after 5 days by preventive manner
Botrytis cinerea [22] = assay: Fungicidal activity against Botryotinia fuckeliana assessed as cucumber gray mold disease control at 31.3 ppm foliar application 24 hr after inoculation at 22 +/- 2 degC measured after 3 days by curative manner
Thanatephorus cucumeris [23] = assay: Fungicidal activity against Thanatephorus cucumeris assessed as rice sheath blight disease control at 7.8 ppm foliar application for 24 hr before inoculation at 26 +- 2 measured after 5 days by preventive manner
Thanatephorus cucumeris [24] = assay: Fungicidal activity against Thanatephorus cucumeris assessed as rice sheath blight disease control at 31.3 ppm foliar application for 24 hr before inoculation at 26 +- 2 measured after 5 days by preventive manner
Botrytis cinerea [25] = assay: Fungicidal activity against Botryotinia fuckeliana assessed as cucumber gray mold disease control at 7.8 ppm foliar application 24 hr after inoculation at 22 +/- 2 degC measured after 3 days by curative manner
Botrytis cinerea [26] = assay: Fungicidal activity against Botryotinia fuckeliana assessed as cucumber gray mold disease control at 2 ppm foliar application 24 hr after inoculation at 22 +/- 2 degC measured after 3 days by curative manner
[27] = test system: Pseudoperonospora cubensis; assay: Fungicidal activity against Pseudoperonospora cubensis assessed as cucumber downy mildew disease control at 125 ppm foliar application 24 hr before inoculation on upper surface of leaf by preventive manner
Podosphaera fuliginea [28] = assay: Fungicidal activity against Podosphaera fuliginea assessed as cucumber powdery mildew control under greenhouse at 125 ppm foliar application 24 hr before inoculation on upper surface of leaf at 23 +/- 2 degC by preventive manner

C=CCOc1cccc(Oc2ccccc2/C(=N\OC)C(=O)NC)c1
Activity (Podosphaera fuliginea [1]): 70%
Activity [2]: 70%
Activity (Podosphaera fuliginea [3]): 70%
Activity (Podosphaera fuliginea [4]): 50%
Activity [5]: 50%
Activity [6]: 70%
Activity [7]: 70%
Activity (Pyricularia oryzae [8]): 50%
Activity (Botrytis cinerea [9]): 50%
Activity (Pyricularia oryzae [10]): 50%
Activity (Podosphaera fuliginea [11]): 70%
Activity (Podosphaera fuliginea [12]): 50%
Activity (Pyricularia oryzae [13]): 50%
Activity [14]: 50%
Activity [15]: 50%
Activity [16]: 50%
Activity (Pyricularia oryzae [17]): 50%
Activity (Podosphaera fuliginea [18]): 50%
Activity (Podosphaera fuliginea [19]): 50%
Activity (Thanatephorus cucumeris [20]): 70%
Activity (Thanatephorus cucumeris [21]): 70%
Activity (Botrytis cinerea [22]): 50%
Activity (Thanatephorus cucumeris [23]): 70%
Activity (Thanatephorus cucumeris [24]): 70%
Activity (Botrytis cinerea [25]): 50%
Activity (Botrytis cinerea [26]): 50%
Activity [27]: 70%
Activity (Podosphaera fuliginea [28]): 70%

CNC(=O)/C(=N/OC)c1ccccc1Oc1cccc(OC)c1
Activity (Podosphaera fuliginea [1]): 70%
Activity [2]: 70%
Activity (Podosphaera fuliginea [3]): 70%
Activity (Podosphaera fuliginea [4]): 50%
Activity [5]: <50%
Activity [6]: 70%
Activity [7]: 70%
Activity (Pyricularia oryzae [8]): 50%
Activity (Botrytis cinerea [9]): 50%
Activity (Pyricularia oryzae [10]): 50%
Activity (Podosphaera fuliginea [11]): 70%
Activity (Podosphaera fuliginea [12]): 50%
Activity (Pyricularia oryzae [13]): 50%
Activity [14]: <50%
Activity [15]: <50%
Activity [16]: <50%
Activity (Pyricularia oryzae [17]): 50%
Activity (Podosphaera fuliginea [18]): 50%
Activity (Podosphaera fuliginea [19]): 50%
Activity (Thanatephorus cucumeris [20]): 70%
Activity (Thanatephorus cucumeris [21]): 70%
Activity (Botrytis cinerea [22]): 50%
Activity (Thanatephorus cucumeris [23]): 70%
Activity (Thanatephorus cucumeris [24]): 70%
Activity (Botrytis cinerea [25]): 50%
Activity (Botrytis cinerea [26]): 50%
Activity [27]: 70%
Activity (Podosphaera fuliginea [28]): 70%

CNC(=O)/C(=N/OC)c1ccccc1Oc1ccc(Cl)c(C)c1
Activity (Podosphaera fuliginea [1]): 70%
Activity [2]: 70%
Activity (Podosphaera fuliginea [3]): 70%
Activity (Podosphaera fuliginea [4]): 50%
Activity [5]: 50%
Activity [6]: 70%
Activity [7]: 70%
Activity (Pyricularia oryzae [8]): 50%
Activity (Botrytis cinerea [9]): 50%
Activity (Pyricularia oryzae [10]): 50%
Activity (Podosphaera fuliginea [11]): 70%
Activity (Podosphaera fuliginea [12]): 50%
Activity (Pyricularia oryzae [13]): 50%
Activity [14]: 50%
Activity [15]: 50%
Activity [16]: 50%
Activity (Pyricularia oryzae [17]): 50%
Activity (Podosphaera fuliginea [18]): 50%
Activity (Podosphaera fuliginea [19]): 50%
Activity (Thanatephorus cucumeris [20]): 70%
Activity (Thanatephorus cucumeris [21]): 70%
Activity (Botrytis cinerea [22]): 50%
Activity (Thanatephorus cucumeris [23]): 70%
Activity (Thanatephorus cucumeris [24]): 70%
Activity (Botrytis cinerea [25]): 50%
Activity (Botrytis cinerea [26]): 50%
Activity [27]: 70%
Activity (Podosphaera fuliginea [28]): 70%

CNC(=O)/C(=N/OC)c1ccccc1Oc1ccc(Br)cc1
Activity (Podosphaera fuliginea [1]): 70%
Activity [2]: <70%
Activity (Podosphaera fuliginea [3]): 70%
Activity (Podosphaera fuliginea [4]): 50%
Activity [5]: <50%
Activity [6]: <70%
Activity [7]: <70%
Activity (Pyricularia oryzae [8]): 50%
Activity (Botrytis cinerea [9]): 50%
Activity (Pyricularia oryzae [10]): 50%
Activity (Podosphaera fuliginea [11]): 70%
Activity (Podosphaera fuliginea [12]): 50%
Activity (Pyricularia oryzae [13]): 50%
Activity [14]: <50%
Activity [15]: <50%
Activity [16]: <50%
Activity (Pyricularia oryzae [17]): 50%
Activity (Podosphaera fuliginea [18]): 50%
Activity (Podosphaera fuliginea [19]): 50%
Activity (Thanatephorus cucumeris [20]): 70%
Activity (Thanatephorus cucumeris [21]): 70%
Activity (Botrytis cinerea [22]): 50%
Activity (Thanatephorus cucumeris [23]): 70%
Activity (Thanatephorus cucumeris [24]): 70%
Activity (Botrytis cinerea [25]): 50%
Activity (Botrytis cinerea [26]): 50%
Activity [27]: <70%
Activity (Podosphaera fuliginea [28]): 70%

CNC(=O)/C(=N/OC)c1ccccc1Oc1ccc(C(C)(C)C)cc1
Activity (Podosphaera fuliginea [1]): 70%
Activity [2]: <70%
Activity (Podosphaera fuliginea [3]): 70%
Activity (Podosphaera fuliginea [4]): 50%
Activity [5]: <50%
Activity [6]: <70%
Activity [7]: <70%
Activity (Pyricularia oryzae [8]): 50%
Activity (Botrytis cinerea [9]): 50%
Activity (Pyricularia oryzae [10]): 50%
Activity (Podosphaera fuliginea [11]): 70%
Activity (Podosphaera fuliginea [12]): 50%
Activity (Pyricularia oryzae [13]): 50%
Activity [14]: <50%
Activity [15]: <50%
Activity [16]: <50%
Activity (Pyricularia oryzae [17]): 50%
Activity (Podosphaera fuliginea [18]): 50%
Activity (Podosphaera fuliginea [19]): 50%
Activity (Thanatephorus cucumeris [20]): 70%
Activity (Thanatephorus cucumeris [21]): 70%
Activity (Botrytis cinerea [22]): 50%
Activity (Thanatephorus cucumeris [23]): 70%
Activity (Thanatephorus cucumeris [24]): 70%
Activity (Botrytis cinerea [25]): 50%
Activity (Botrytis cinerea [26]): 50%
Activity [27]: <70%
Activity (Podosphaera fuliginea [28]): 70%
